Measured values taken from ChEMBL document CHEMBL1201862, “PubChem BioAssay data set” (2004).
Activity calls are given as the source filed them.

Columns and labels:
Cytochrome P450 2D6 = Cytochrome P450 2D6 (Homo sapiens, UniProt P10635); experiment: qHTS Assay for Inhibitors and Substrates of Cytochrome P450 2D6. [Related pubchem assays: 410 ]; format: ADME; conditions: read-out: Potency
[1] = NIH-3T3 fibroblast cytotoxicity, dose response, cytotoxicity control, cell-based, fluorescence, Alamar Blue, secondary assay (AID 2327); format: functional;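 note: NIH-3T3 mouse fibroblasts cultured with fluconazole at 8 µg/mL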
[2] = C. albicans growth with fluconazole, confirmation, fluorescence, retest (AID 2467); format: functional, cell-based
[3] = target: T1, Short transient receptor potential channel 4 (Mus musculus, UniProt Q9QUQ5); experiment: mouse TRPC4 channel activators, dose response, cell-based, HEK293 TRPC4/mu-opioid, Fluo-4 calcium (AID 434937); format: functional
T1 sequence (Q9QUQ5 whole entry): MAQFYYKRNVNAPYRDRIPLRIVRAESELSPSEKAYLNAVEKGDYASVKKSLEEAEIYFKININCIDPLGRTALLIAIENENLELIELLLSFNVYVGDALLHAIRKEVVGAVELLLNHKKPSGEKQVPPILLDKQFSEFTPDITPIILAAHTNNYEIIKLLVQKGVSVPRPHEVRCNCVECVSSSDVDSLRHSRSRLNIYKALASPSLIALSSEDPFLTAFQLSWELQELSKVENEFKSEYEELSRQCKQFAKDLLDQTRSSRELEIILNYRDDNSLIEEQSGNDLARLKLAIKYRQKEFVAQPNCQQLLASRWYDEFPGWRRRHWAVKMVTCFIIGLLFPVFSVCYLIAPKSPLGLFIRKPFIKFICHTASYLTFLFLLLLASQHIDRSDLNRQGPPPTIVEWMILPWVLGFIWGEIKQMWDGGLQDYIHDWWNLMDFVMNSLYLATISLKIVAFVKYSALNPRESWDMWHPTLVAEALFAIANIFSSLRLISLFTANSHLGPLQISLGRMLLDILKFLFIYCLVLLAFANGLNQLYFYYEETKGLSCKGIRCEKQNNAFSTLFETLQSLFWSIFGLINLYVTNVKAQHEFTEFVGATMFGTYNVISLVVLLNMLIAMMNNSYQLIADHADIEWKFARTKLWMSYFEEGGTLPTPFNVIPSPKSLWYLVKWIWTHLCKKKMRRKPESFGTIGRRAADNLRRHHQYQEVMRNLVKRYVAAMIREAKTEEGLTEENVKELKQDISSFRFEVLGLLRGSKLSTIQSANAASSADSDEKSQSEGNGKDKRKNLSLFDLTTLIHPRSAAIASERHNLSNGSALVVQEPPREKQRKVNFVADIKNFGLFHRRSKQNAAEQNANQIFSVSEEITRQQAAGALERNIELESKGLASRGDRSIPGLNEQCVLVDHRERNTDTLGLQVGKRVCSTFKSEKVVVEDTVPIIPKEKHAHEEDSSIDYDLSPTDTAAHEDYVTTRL

[4] = target: T2, Type-1 angiotensin II receptor (Homo sapiens, UniProt P30556); experiment: AT1 receptor antagonists, dose response, selectivity assay for APJ receptor antagonist project, cell-based, uHTS hits (AID 463214); format: functional;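 note: antagonist potency against angiotensin II stimulated AT1 response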
T2 sequence (P30556 whole entry): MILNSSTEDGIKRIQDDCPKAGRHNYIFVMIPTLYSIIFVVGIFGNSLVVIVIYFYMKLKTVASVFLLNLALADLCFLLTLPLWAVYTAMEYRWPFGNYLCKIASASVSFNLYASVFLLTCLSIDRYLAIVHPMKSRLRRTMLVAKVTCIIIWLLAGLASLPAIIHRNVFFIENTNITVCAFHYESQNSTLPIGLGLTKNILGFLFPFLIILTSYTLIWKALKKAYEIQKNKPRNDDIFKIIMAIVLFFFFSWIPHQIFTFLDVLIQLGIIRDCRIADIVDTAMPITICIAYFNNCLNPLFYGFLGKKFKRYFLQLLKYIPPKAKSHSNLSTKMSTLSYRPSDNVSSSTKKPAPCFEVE

Vero = experiment: host cell cytotoxicity of antiviral hits, dose response, cytotoxicity control for West Nile virus antiviral project, secondary assay (AID 1650); format: functional; conditions: Chlorocebus sabaeus
Beta-galactosidase = Beta-galactosidase (Escherichia coli, UniProt Q8VNN2); experiment: PubChem AID 485352; format: functional
Sequence of Beta-galactosidase (Q8VNN2 whole entry): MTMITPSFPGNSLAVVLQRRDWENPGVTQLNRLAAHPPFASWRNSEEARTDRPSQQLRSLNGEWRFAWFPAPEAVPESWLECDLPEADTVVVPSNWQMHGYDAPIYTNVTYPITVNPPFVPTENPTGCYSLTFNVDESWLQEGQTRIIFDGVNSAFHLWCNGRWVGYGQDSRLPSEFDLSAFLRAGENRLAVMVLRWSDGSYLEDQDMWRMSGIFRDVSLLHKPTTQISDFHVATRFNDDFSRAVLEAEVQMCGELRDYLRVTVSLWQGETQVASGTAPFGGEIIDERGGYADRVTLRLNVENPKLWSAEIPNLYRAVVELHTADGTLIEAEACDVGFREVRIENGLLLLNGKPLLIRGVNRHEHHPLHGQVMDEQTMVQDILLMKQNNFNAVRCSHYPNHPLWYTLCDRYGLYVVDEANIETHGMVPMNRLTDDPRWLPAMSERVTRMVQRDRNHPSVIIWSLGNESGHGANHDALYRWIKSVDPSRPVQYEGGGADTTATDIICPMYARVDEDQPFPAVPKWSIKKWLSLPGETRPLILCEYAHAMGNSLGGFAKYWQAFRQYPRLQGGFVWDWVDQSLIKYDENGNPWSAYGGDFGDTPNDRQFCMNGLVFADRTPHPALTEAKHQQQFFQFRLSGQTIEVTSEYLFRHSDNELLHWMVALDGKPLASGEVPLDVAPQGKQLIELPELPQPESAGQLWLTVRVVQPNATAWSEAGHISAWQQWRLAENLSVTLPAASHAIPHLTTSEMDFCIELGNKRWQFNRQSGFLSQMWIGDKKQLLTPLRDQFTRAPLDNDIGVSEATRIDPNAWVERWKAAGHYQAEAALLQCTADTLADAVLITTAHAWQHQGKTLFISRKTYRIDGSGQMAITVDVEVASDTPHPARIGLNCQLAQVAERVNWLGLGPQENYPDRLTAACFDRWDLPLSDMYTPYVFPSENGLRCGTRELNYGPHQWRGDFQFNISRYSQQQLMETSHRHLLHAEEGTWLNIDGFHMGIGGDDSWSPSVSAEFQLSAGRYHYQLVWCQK

INS1 = experiment: beta cell apoptosis inhibitors, cytokine rescue, dose response, luminescence, retest (AID 449756); format: functional, cell-based; conditions: Rattus norvegicus;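 note: cell death triggered by IL-1 beta plus TNF-alpha plus IFN-gamma mixture; protective hits raise ATP signal compared with cytokine alone wells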
14-3-3 protein gamma = 14-3-3 protein gamma (Homo sapiens, UniProt P61981); experiment: modulators of 14-3-3 gamma client binding – dose response (AID 711); format: functional
Sequence of 14-3-3 protein gamma (P61981 whole entry): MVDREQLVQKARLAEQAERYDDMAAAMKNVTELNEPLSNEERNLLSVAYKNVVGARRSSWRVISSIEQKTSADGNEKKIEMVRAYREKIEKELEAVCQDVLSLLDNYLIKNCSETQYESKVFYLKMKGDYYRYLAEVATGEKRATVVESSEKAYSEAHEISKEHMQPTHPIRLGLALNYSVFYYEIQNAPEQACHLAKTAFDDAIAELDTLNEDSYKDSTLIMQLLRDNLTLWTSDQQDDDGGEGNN

[5] = Luminescence Cell-Based Dose Retest to Confirm Inhibitors of Cancer Stem Cells. [Related pubchem assays (depositor defined):AID2717, AID2721]; format: functional; conditions: Homo sapiens
[6] = target: G-protein coupled receptor 55 (Homo sapiens, UniProt Q9Y2T6); experiment: GPR55 antagonists blocking LPI-driven arrestin recruitment, primary screen, imaging, U2OS, beta-arrestin-GFP, LPI agonist (AID 2013); format: functional;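 note: antagonist potency measured as reduced agonist-driven arrestin aggregation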
Sequence of G-protein coupled receptor 55 (Q9Y2T6 whole entry): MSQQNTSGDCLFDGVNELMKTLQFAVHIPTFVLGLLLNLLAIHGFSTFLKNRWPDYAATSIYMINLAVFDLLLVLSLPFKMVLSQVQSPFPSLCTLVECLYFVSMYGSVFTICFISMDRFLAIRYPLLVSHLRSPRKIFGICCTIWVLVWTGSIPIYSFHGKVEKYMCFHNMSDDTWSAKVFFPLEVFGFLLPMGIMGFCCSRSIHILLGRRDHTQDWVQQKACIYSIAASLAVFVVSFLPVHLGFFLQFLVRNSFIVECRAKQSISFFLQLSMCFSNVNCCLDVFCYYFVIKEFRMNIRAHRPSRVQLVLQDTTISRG

[7] = target: T3, Alkaline phosphatase, tissue-nonspecific isozyme (Homo sapiens, UniProt P05186)
T3 sequence (P05186 whole entry): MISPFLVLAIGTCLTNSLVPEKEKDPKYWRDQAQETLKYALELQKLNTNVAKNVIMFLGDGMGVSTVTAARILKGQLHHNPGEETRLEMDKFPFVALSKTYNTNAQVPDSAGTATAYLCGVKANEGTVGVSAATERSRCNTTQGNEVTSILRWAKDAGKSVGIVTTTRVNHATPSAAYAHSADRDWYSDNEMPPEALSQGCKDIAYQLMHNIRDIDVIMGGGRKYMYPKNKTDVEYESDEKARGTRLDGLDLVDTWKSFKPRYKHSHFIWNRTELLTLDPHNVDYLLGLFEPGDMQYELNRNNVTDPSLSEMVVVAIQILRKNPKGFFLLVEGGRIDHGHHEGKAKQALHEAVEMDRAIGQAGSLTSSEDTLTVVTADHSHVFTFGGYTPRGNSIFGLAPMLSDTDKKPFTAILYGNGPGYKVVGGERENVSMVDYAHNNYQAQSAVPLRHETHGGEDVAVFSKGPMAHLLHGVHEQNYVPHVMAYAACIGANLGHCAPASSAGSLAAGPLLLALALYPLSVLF

[8] = target: Heat shock protein HSP 90-alpha (Homo sapiens, UniProt P07900); format: functional, organism-based
[9] = Artemis endonuclease inhibitor potency, dose response, biochemical, fluorescence intensity (AID 720701); format: functional;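 note: Artemis endonuclease enzyme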
Procathepsin L = Procathepsin L (Homo sapiens, UniProt P07711); experiment: cathepsin L inhibitors, dose response, counter-screen for M1/M17 aminopeptidase inhibitor project, biochemical, QFRET, 1536-well (AID 2214)
Sequence of Procathepsin L (P07711 whole entry): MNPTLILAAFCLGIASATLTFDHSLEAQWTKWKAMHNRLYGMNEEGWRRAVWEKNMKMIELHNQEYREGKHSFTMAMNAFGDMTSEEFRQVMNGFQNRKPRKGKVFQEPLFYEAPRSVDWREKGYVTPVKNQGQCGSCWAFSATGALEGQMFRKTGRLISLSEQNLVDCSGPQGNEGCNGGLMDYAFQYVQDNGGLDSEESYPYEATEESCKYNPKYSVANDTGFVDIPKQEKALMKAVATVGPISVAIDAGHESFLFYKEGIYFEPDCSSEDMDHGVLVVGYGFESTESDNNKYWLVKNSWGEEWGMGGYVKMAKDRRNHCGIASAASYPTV

Leucine aminopeptidase = target: T4, Leucine aminopeptidase (Plasmodium falciparum 3D7, UniProt Q8IL11); experiment: P. falciparum M17LAP inhibitors, primary screen, biochemical, fluorogenic H-Leu-NHMec substrate, 1536-well (AID 1619); format: functional
T4 sequence (Q8IL11 whole entry): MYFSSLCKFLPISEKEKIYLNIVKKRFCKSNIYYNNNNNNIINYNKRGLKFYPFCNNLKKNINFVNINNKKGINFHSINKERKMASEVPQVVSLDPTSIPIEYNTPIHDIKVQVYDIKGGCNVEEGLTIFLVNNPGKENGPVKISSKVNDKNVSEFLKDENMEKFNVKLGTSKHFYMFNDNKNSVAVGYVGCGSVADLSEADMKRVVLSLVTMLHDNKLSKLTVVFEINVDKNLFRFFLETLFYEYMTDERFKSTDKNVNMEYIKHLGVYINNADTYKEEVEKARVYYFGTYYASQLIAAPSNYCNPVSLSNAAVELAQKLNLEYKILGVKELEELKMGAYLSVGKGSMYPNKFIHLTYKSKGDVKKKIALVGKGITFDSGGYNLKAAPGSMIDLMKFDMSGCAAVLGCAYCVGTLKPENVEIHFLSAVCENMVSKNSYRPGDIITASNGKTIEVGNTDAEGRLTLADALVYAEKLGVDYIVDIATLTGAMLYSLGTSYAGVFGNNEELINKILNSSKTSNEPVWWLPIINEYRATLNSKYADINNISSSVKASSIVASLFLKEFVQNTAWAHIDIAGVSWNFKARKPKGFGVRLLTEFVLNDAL

Aspartyl aminopeptidase = target: T5, Aspartyl aminopeptidase (Plasmodium falciparum 3D7, UniProt Q8I2J3); experiment: Counterscreen for inhibitors of M1 and M17 aminopeptidases: QFRET-based biochemical high throughput dose response assay for inhibitors of the Plasmodium falciparum M18 Aspartyl Aminopeptidase (PFM18AAP). [Related PubChem assays: 1619 (Screening assay (M17LAP inhibitors).), 1445 (Screening assay (M1AAP inhibitors).)]
T5 sequence (Q8I2J3 whole entry): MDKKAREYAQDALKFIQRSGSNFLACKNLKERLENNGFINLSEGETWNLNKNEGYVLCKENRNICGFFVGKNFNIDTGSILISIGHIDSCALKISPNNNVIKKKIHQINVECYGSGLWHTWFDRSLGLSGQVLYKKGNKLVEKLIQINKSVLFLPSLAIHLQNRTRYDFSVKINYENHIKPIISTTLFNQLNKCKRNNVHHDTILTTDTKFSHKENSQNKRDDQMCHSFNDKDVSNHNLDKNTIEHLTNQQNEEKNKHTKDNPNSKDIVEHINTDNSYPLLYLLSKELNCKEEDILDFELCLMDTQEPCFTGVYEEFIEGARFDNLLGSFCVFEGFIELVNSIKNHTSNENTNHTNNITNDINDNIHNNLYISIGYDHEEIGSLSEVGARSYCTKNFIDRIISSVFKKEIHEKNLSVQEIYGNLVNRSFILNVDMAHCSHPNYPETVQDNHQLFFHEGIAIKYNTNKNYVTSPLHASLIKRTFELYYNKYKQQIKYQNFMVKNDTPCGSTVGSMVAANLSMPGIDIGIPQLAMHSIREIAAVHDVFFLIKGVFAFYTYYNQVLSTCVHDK

[10] = target: Mothers against decapentaplegic homolog 3 (Homo sapiens, UniProt P84022); experiment: Smad3 binding inhibitors, lysate ELISA, dose response, cell lysate, secondary confirmation, chemiluminescent ELISA, HEK293 lysate (AID 1058); format: functional
Sequence of Mothers against decapentaplegic homolog 3 (P84022 whole entry): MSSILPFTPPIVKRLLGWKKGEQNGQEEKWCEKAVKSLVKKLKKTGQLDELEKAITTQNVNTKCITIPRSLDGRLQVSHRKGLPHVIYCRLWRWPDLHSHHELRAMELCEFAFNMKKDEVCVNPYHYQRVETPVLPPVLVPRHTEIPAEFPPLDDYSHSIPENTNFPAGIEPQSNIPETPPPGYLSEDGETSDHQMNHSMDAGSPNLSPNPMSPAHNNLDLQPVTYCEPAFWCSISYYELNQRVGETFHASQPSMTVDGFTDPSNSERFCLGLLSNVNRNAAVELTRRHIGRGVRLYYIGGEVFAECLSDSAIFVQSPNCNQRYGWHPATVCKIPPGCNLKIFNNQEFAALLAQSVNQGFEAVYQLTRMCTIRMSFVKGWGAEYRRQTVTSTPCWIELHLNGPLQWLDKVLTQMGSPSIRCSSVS

Paired box protein Pax-8 = Paired box protein Pax-8 (Homo sapiens, UniProt Q06710); experiment: inhibitors of PAX8-driven TPO luciferase reporter, dose response, RMG-I cells, cherry-pick (AID 687027); format: functional, cell-based;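 note: luciferase reporter driven by Pax8 target thyroperoxidase promoter measured by SteadyGlo luminescence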
Sequence of Paired box protein Pax-8 (Q06710 whole entry): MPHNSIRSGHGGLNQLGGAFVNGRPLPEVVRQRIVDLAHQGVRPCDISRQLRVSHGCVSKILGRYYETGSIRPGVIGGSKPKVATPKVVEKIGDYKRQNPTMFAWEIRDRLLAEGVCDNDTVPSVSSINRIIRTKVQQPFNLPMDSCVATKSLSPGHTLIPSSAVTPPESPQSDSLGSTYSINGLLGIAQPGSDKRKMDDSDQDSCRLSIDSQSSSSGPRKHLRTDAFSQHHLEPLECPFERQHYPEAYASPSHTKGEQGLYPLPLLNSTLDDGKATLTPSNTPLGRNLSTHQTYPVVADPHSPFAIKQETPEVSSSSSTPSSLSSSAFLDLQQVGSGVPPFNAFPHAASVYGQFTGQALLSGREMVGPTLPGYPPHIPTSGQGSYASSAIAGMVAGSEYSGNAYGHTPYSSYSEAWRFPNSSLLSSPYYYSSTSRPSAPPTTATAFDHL

[11] = target: T6, Microphthalmia-associated transcription factor (Homo sapiens, UniProt O75030); experiment: TRPM1 promoter luciferase signal decrease, dose response, MITF inhibitor project, cell-based, SK-MEL-5, cherry-picked, set 3 (AID 493073); format: functional
T6 sequence (O75030 whole entry): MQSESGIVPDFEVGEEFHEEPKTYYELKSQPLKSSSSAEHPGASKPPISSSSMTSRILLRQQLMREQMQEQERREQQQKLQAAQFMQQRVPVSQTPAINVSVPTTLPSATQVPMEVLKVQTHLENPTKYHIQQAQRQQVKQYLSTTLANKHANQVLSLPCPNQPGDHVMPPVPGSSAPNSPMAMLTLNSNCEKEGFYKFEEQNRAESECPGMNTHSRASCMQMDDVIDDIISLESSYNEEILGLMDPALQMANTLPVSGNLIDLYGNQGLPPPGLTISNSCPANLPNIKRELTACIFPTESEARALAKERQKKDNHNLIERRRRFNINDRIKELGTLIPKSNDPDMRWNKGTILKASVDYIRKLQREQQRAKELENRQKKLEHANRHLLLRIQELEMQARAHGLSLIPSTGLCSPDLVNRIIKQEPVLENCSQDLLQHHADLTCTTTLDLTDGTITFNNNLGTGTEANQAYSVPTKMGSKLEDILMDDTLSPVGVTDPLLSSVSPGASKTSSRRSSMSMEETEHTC

[12] = A Cell Based Secondary Assay To Explore Cytotoxicity of Compounds that Sensitize Mycobacterium Tuberculosis to Beta-Lactam Antibiotics.; format: functional

Sequence of Cytochrome P450 2D6 (P10635 whole entry): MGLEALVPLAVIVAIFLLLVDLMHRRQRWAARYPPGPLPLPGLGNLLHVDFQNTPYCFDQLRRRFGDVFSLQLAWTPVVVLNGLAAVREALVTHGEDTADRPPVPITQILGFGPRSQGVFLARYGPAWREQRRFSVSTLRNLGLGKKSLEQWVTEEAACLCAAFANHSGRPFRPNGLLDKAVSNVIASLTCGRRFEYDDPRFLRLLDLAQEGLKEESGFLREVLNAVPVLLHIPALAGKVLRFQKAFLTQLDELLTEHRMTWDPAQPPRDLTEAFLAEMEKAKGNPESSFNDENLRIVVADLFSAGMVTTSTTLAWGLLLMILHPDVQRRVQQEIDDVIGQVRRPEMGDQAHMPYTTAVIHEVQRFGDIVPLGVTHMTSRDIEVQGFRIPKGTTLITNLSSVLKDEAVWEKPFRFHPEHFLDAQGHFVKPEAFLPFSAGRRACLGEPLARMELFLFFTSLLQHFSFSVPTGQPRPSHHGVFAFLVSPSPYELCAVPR

## COc1cc2c(cc1O)CCN[C@H]2C
Cytochrome P450 2D6
  AC50: 20 µM (inconclusive)

## CC(C)(C)C(=O)NC(=S)NNC(=O)c1ccc(-c2ccccc2)cc1
[1]
  EC50: 3.25 µM (active)
[2]
  EC50: 0.694 µM (active)
[3]
  EC50: 1.5 µM (active)
[4]
  IC50: 10.8 µM (active)
Vero
  CC50: 4.57 µM (active)
Beta-galactosidase
  EC50: > 40 µM (inactive)
INS1
  AC50: 2.14 µM (active)

## CCOc1ccc2[nH]c(=O)c(CN(CC3COCCO3)C(=O)C3CC3)cc2c1 (stereo not drawn)
14-3-3 protein gamma
  IC50: > 50 µM (not active)

## COc1ccc(OC2C=CC(c3ccccc3)OC2CO)cc1 (stereo not drawn)
Cytochrome P450 2D6
  AC50: 6.31 µM (inconclusive)

## CCN(CC)CCNCC1C(=O)O[C@@H]2C[C@@]3(C)CCC[C@H](C)C3=C[C@H]12 (stereo partly drawn)
Vero
  CC50: > 100 µM (active)

## c1ccc(-c2c(-c3ccccc3)n(Cc3ccco3)c3ncnc(NCCCn4ccnc4)c23)cc1
[5]
  AC50: 5.23 µM (active)
[6]
  IC50: 2.09 µM (active)
[7]
  EC50: 63 µM (not active)
[8]
  AC50: 2.53 µM (active)
[9]
  IC50: 17.8 µM (active)

## CCCCc1ccc(NC(=S)NCCc2ccc(S(N)(=O)=O)cc2)cc1
[7]
  EC50: > 100 µM (not active)

## COC(=O)c1c(-c2cc(C)ccc2C)csc1NC(=O)C1CC=CCC1C(=O)O (stereo not drawn)
Procathepsin L
  IC50: > 59.6 µM (not active)
Leucine aminopeptidase
  IC50: < 1 µM (active)
Aspartyl aminopeptidase
  IC50: > 73.5 µM (not active)

## COc1ccc(C(c2cc3c(cc2O)OCO3)N2CCOCC2)c(OC)c1 (stereo not drawn)
[10]
  IC50: > 40 µM (not active)

## Cc1sc(NC(=O)C2CC(Cl)=CCC2C(=O)O)c(C#N)c1C (stereo not drawn)
Procathepsin L
  IC50: > 59.6 µM (not active)
Leucine aminopeptidase
  IC50: 1.73 µM (active)
Aspartyl aminopeptidase
  IC50: > 73.5 µM (not active)

## C=C1C(=O)O[C@@H]2[C@H]1[C@@H](OC(=O)/C(C)=C/C)C/C(C)=C\C(=O)/C=C(\C)[C@@H]2O
Paired box protein Pax-8
  AC50: 4.03 µM (active)
[11]
  AC50: 7.07 µM (active)
[12]
  CC50: 4.26 µM (active)

## O=C1C=CC(=C(c2ccc(O)c(O)c2)c2ccccc2S(=O)(=O)O)C=C1O [PYROCATECHOL VIOLET]
[10]
  IC50: 3.28 µM (not active)
